Values joined by “and” are separate entries in the source; they are usually repeats but may differ in a detail not shown here. Equal values may be shown once.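 Exposure lasted 48 hours, with cells grown in 96-well plates and compounds tested at five concentrations. At the GI50, growth is halved. Definition used: TGI = concentration required for complete inhibition of growth.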
Legend:
Test in all cases: NCI anticancer screen, dose series, 48 h
SW-620 colon = system: SW-620 colon
HT29 colon = system: HT29 colon
CCRF-CEM leukemia = system: CCRF-CEM leukemia
SNB-19 CNS = system: SNB-19 CNS
786-0 renal = system: 786-0 renal
SK-MEL-2 melanoma = system: SK-MEL-2 melanoma
SK-MEL-5 melanoma = system: SK-MEL-5 melanoma
HCT-116 colon = system: HCT-116 colon
DMS 114 small cell lung = system: DMS 114 small cell lung
SF-268 CNS = system: SF-268 CNS

Structure (SMILES) | GI50 (SW-620 colon) | TGI (SW-620 colon) | GI50 (HT29 colon) | TGI (HT29 colon) | TGI (CCRF-CEM leukemia) | TGI (SNB-19 CNS) | TGI (786-0 renal) | GI50 (SK-MEL-2 melanoma) | TGI (SK-MEL-2 melanoma) | GI50 (SK-MEL-5 melanoma) | TGI (SK-MEL-5 melanoma) | TGI (HCT-116 colon) | TGI (DMS 114 small cell lung) [µM] | TGI (SF-268 CNS) | GI50 (CCRF-CEM leukemia) | GI50 (SNB-19 CNS) [µM] | GI50 (HCT-116 colon) | GI50 (DMS 114 small cell lung) [µM] | GI50 (SF-268 CNS) [µM]
NC1=N/C(=C2/CCNC(=O)c3[nH]c(Br)cc32)C(=O)N1 | 2.71 µM and 6.12 µM | > 100 µM | 27.2 µM and 67.7 µM | > 100 µM | > 100 µM | > 100 µM | > 61.4 µM | 0.975 µM and 2.9 µM | 8.72 µM and 26.3 µM | 19.7 µM and 40.6 µM | > 100 µM | > 100 µM | > 100 | 59.9 µM and > 69.6 µM |  |  |  |  | 
CC1OC(OCC2COC(O)(Oc3c(-c4ccc(O)c(O)c4)oc4cc(O)cc(O)c4c3=O)C(O)C2O)C(O)C(O)C1O (configuration not stated) |  | > 100 µM |  | > 100 µM | > 100 µM | > 100 µM | > 100 µM |  |  |  | > 100 µM | > 100 µM | > 100 | > 100 µM |  |  |  |  | 
O=C1OC(O)C(Oc2ccc(Cl)cc2)=C1Cl (configuration not stated) |  | > 100 µM |  | > 100 µM | > 100 µM | > 100 µM | > 100 µM |  | > 100 µM |  |  | > 100 µM | > 100 | > 100 µM |  |  |  |  | 
CN(C)CC1(C)CC/C(=C\c2ccccc2)C1=O (configuration not stated) |  | > 100 µM |  | > 100 µM | > 100 µM | > 100 µM | > 100 µM |  | > 100 µM |  | > 100 µM | > 100 µM | > 100 | > 100 µM |  |  |  |  | 
N#CCCN(c1ccc(-c2nnc(NC(=O)CNNC(=O)CC(=O)Nc3ccccc3)s2)cc1)S(=O)(=O)c1ccccc1 |  | > 100 µM |  | > 100 µM | > 100 µM | > 100 µM | > 100 µM |  | > 100 µM |  | > 100 µM | > 100 µM | > 100 | > 100 µM |  |  |  |  | 
CO[C@@H]1[C@H](OC(=O)NC(=O)CCl)CC[C@]2(CO2)[C@H]1[C@@]1(C)O[C@@H]1CC=C(C)C | 5.73 µM and 4.16 µM | 51.7 µM and 41.3 µM | 8.62 µM and 20.5 µM | 27.5 µM and 88.9 µM | 18 µM and 28.4 µM | 45.4 µM and 69.1 µM | 30 µM and 47.7 µM | 23 µM | 35.5 µM and 68.6 µM | 3.87 µM and 12.3 µM | 24.2 µM and 40.7 µM | 28.7 µM and 40.9 µM | 23.4 | 33.6 µM and 74.5 µM | 1.98 µM and 5.49 µM | 6.01 | 2.77 µM and 11.2 µM and 2.96 µM | 2.17 | 20
COc1ccc(C(c2c(O)c3ccccc3n(C)c2=O)c2c(O)c3ccccc3n(C)c2=O)cc1 |  | > 100 µM |  | > 100 µM |  | > 100 µM | > 100 µM |  | > 100 µM |  | 54.6 µM | > 100 µM | > 100 | > 100 µM |  |  |  |  | 
CC(C)(C)c1ccc(C(O)c2ccc(C(C)(C)C)cc2)cc1 |  | 27.9 µM |  | 22.3 µM | 38.9 µM | 31.8 µM | 29 µM |  | 29.4 µM |  | 30.4 µM | 24.5 µM | 25.7 | 34.6 µM |  |  |  |  | 
CN(C)CCNC(=O)c1cccc2[nH]c(-c3ccccc3)nc12 |  | 45.8 µM |  | 57 µM | > 100 µM | > 100 µM | > 100 µM |  | 32.5 µM |  | 28.4 µM | 27.5 µM | 32.3 | 46.3 µM |  |  |  |  | 
Cc1ccc(C)c(NC(=O)CC/C(=N\NC(=O)C(N)=O)C(C)C(=O)c2ccc(O)cc2)c1 (configuration not stated) |  | > 100 µM |  | > 100 µM | > 100 µM | > 100 µM | > 100 µM |  | > 100 µM |  | > 100 µM | > 100 µM | > 100 | > 100 µM |  |  |  |  | 
Cc1ccccc1C(C#N)C(=O)C(=O)Nc1cccc(Cl)c1 (configuration not stated) |  | 31.6 µM |  | > 100 µM | > 100 µM | > 100 µM | > 100 µM |  | > 100 µM |  | > 100 µM | > 100 µM | > 100 | > 100 µM |  |  |  |  | 
CCN(CC)C(=O)COc1ccc(Br)cc1Br |  | > 100 µM |  | > 100 µM | > 100 µM | > 100 µM | > 100 µM |  | > 100 µM |  | > 100 µM | > 100 µM | > 100 | > 100 µM |  |  |  |  | 
CC1C=CC(=O)C(n2cc(F)c(=O)[nH]c2=O)O1 (configuration not stated) |  | 36.7 µM |  | 32.5 µM | 34.4 µM | 53.6 µM | 31.3 µM |  |  |  | 35.8 µM | 29.1 µM | 31.5 |  |  |  |  |  | 
COc1ccc2nc3ccccc3c(NCCCCCCN(C)CCCl)c2c1 |  | 1.52 µM |  | 2.38 µM | 0.348 µM | 2.77 µM | 1.53 µM |  | 1.81 µM |  | 2.16 µM | 1.22 µM | 1.69 | 2.48 µM |  |  |  |  | 
O=C(COc1ccccc1)NS(=O)(=O)c1ccccc1 |  | > 100 µM |  | > 100 µM | > 100 µM | > 100 µM | > 100 µM |  | > 100 µM |  |  | > 100 µM | > 100 | > 100 µM |  |  |  |  | 

Source: PubChem BioAssay (NCI)
